# Results as given in patent publication US9670545B2, “Methods and kits for treating and classifying individuals at risk of or suffering from TRAP1 change-of-function” (Courtagen Life Sciences, Inc., priority 2013, dated 2017).
# System: patient with I253V in the TRAP1 ATPase domain
# Experiment: Case Report 1: clinical response of a patient with I253V in the TRAP1 ATPase domain to supplementation
# Type: in vivo, human
# Details: single patient
# Procedure: A person was referred to the inventors because of a failure-to-thrive and hypoglycemia. Additional problems included constipation, temperature instability, tachycardia, delayed gastric emptying (confirmed by Scintiscan), almost-daily pain (headaches, abdominal pain, leg cramps), chronic fatigue (sleeping up to 22 hours a day), anemia (requiring multiple transfusions), repetitive episodes of right arm dyskinesia (2 minutes each, twice a week), and neurodevelopmental issues (gross motor delay, auditory processing problem, and memory defects, but cognitive delay is only 6 months). […] Episodic dyskinesia later resolved with L-arginine supplementation. However, gastrointestinal dysfunction worsened, necessitating a gastrostomy tube, followed by a jejunostomy tube. […] Pertinent results of an extensive work-up include normal brain MR, normal video-EEG, severe free carnitine deficiency (<4 micromolar, normal >19; total carnitine 17), trace elevations on urine organic acids, respiratory alkalosis (hyperventilation), and hypoglycemia (even while receiving adequate jejunal feeds or parental nutrition). […] After finding the I253V in the TRAP1 ATPase domain, antioxidant therapy was intensified, and results are pending.
smiles,measurement,value
N=C(N)NCCC[C@H](N)C(=O)O [L-arginine],Episodic dyskinesia (repetitive episodes of right arm dyskinesia),resolved
